Source: US8211939B2, “Isosorbide nitrates” (Lacer, S.A., priority 2008, dated 2012)
Where two headings read alike, the source gives them in different places.

What was measured:
[1] = system: thrombus formation in the carotid artery (70% FeCl3 patch); assay: Anti-thrombotic activity, FeCl3-induced carotid artery thrombosis; assay type: in vivo, Male Wistar rats; settings: % animals protected; for responders at 90 µmol/kg / Antithrombotic activity (% protection): 90 μmol/kg p.o.
Description: Anti-Thrombotic Activity Assessment Experimental Procedure Male Wistar rats weighing 250-300 g were used after an acclimatization period of five days, and animals were divided in groups of 8 animals each for the treatments. […] The vehicle used to dissolve the products consisted of 1% Cremophor EL 27963, 1% Tween 80 and 0.5% Methocel E-15 in distilled water. After a fasting period of 8 hours with free access to drinking water each product was given by gavage 1 hour before induction of thrombosis. Thrombus formation was induced using a patch embedded with 70% FeCl3 solution applied onto the carotid artery using the same procedure described by Feuerstein G Z et al and later modified by Kurz et al (Feuerstein G Z, et al Artherioscler. Thromb. Vasc. Biol. 1999, 19: 2554-2562, Kurz K D, et al Thromb. Res. 1990, 60:269-280). Anti-thrombotic efficacy was evaluated at different times after dosage. Rats were anesthetized with sodium pentobarbital and then placed on a dorsal position over a thermal blanket laid on a surgical board and heated at 37° C. The left carotid artery was dissected and an electromagnetic blood flow probe was placed on the artery to measure blood flow. After application of the thrombotic stimuli, blood flow was monitored for the following 30 minutes. The vessel was considered occluded by the thrombus when flow reached 0.0 ml/min. Data were analysed by contingency tables using the Graph Pad Prism Program. P values were calculated using Fisher's exact test, values of p<0.05 were considered statistically significant. Results were expressed as % animals protected.

[2] = system: coronary angina caused by coronary obstruction (35% ferric chloride patch on left anterior descending coronary artery); assay: Anti-anginal activity, ferric chloride-induced coronary angina (ECG S-wave); assay type: in vivo, Male Wistar rats; settings: Rattus norvegicus, po, read-out: Antianginal activity (% inhibition of S-wave decrease)
Description: Anti-Anginal Activity Assessment
Male Wistar rats weighing 250-300 g were used after an acclimatization period of five days, and animals were divided in groups of 8 for each treatment. In all experiments, rats were treated with 90 μmol/kg of each product by oral gavage using an administration volume of 10 ml/kg unless otherwise stated. The vehicle used to dissolve the products consisted of 1% Cremophor EL 27963, 1% Tween 80 and 0.5% Methocel E-15 in distilled water. […]
The procedure used to test the anti-anginal activity was that described by Hirata Y et al (Hirata Y, et al. Journal of Cardiovascular Pharmacology 1998, 31: 322-326).
After treatment, animals were anaesthetized with pentobarbital and electrodes were set for standard limb lead II electrocardiogram recording (Grass polygraph model 7, amplifier 7DA and pre-amplifier 7P1).
To induce coronary angina caused by coronary obstruction, a 35%-ferric chloride embedded mini patch was applied onto the left anterior descending coronary artery just below the left auricle. In all groups, after application of the patch, the ECG was recorded during 10 minutes. The shortening of the S-wave amplitude was measured on the recorded ECG. Data were collected with a Biopac system model MP100 connected to a Pentium PC. Results were expressed as % inhibition of S-wave decrease vs the untreated control.

[3] = Rattus norvegicus, po, 4 h, 4 h after dosage, read-out: Antithrombotic activity (% protection)
[4] = Rattus norvegicus, po, 2 h, 2 h after dosage, read-out: Antithrombotic activity (% protection)
[5] = 1 h, rat, 90 μmol/kg p.o., 1 h, vs untreated control
[6] = Rattus norvegicus, po, 1 h, 1 h after dosage, read-out: Antithrombotic activity (% protection)
[7] = Rattus norvegicus, po, 0.5 h, ½ h after dosage, read-out: Antithrombotic activity (% protection)
[8] = 4 h, rat, 90 μmol/kg p.o., 4 h, vs untreated control

Compound | responders at 90 µmol/kg [1, 3] [%] | responders at 90 µmol/kg [1, 4] [%] | responders at 90 µmol/kg [1, 6] [%] | also measured
CC[S+]([O-])[C@@H]1CO[C@H]2[C@@H]1OC[C@H]2O[N+](=O)[O-] (single isomer, unassigned) [Ej. 13 isom 1] | 16 |  |  | Antithrombotic activity (% protection) ([1]; rat, 1 h after dosage): 32%
CC[S+]([O-])[C@@H]1CO[C@H]2[C@@H]1OC[C@H]2O[N+](=O)[O-] (single isomer, unassigned) [Ej. 13 isom 2] |  |  |  | Antithrombotic activity (% protection) ([1]; rat, 1 h after dosage): 83%; Antithrombotic activity (% protection) ([1]; rat, 4 h after dosage): 16%
O=[N+]([O-])O[C@@H]1CO[C@H]2[C@@H]1OC[C@@H]2S [Comp 1, (3R,3aS,6S,6aS)-6-(mercapto)hexahydrofuro[3,2-b]furan-3-yl nitrate, reference compound] | 16 | 32 |  | responders at 230 µmol/kg ([1]; Rattus norvegicus, po, 1 h, 230 μmol/kg p.o., 1 h after dosage, read-out: Antithrombotic activity (% protection)): 50%; inhibition in vivo at 90 µmol/kg ([2]; 0.5 h, rat, 90 μmol/kg p.o., ½ h, vs untreated control): 0%; inhibition in vivo at 90 µmol/kg [2, 5]: 0%; inhibition in vivo at 90 µmol/kg ([2]; 2 h, rat, 90 μmol/kg p.o., 2 h, vs untreated control): 50%
O=[N+]([O-])O[C@@H]1CO[C@H]2[C@@H]1OC[C@@H]2SCc1ccccc1 [Comp 2, (3R,3aS,6S,6aS)-6-(benzylthio)hexahydrofuro[3,2-b]furan-3-yl nitrate, reference compound] |  |  | 33 | 
CCOC(=O)CS[C@H]1CO[C@H]2[C@@H]1OC[C@H]2O[N+](=O)[O-] [Comp 3, Ethyl 2-((3S,3aS,6R,6aS)-6-(nitrooxy)hexahydrofuro[3,2-b]furan-3-ylthio)acetate, reference compound] |  |  | 32 | 
O=[N+]([O-])O[C@@H]1CO[C@H]2[C@@H]1OC[C@@H]2[S+]([O-])Cc1ccccc1 (stereo partly drawn) [Comp 4, (3R,3aS,6S,6aS)-6-((R,S)-benzylsulfinyl)hexahydrofuro[3,2-b]furan-3-yl nitrate, reference compound] | 0 | 0 | 20 | 
CCOC(=O)C[S+]([O-])[C@H]1CO[C@H]2[C@@H]1OC[C@H]2O[N+](=O)[O-] (stereo partly shown) [Comp 5, reference compound] | 0 | 0 | 16 | 
C[S@@+]([O-])[C@H]1CO[C@H]2[C@@H]1OC[C@H]2O[N+](=O)[O-] [Comp 6, (3R,3aS,6S,6aS)-6-((R)-methylsulfinyl)hexahydrofuro[3,2-b]furan-3-yl nitrate, reference compound] | 0 | 0 | 16 | responders at 90 µmol/kg [1, 7]: 40%; inhibition in vivo at 90 µmol/kg [2, 5]: 48%; inhibition in vivo at 90 µmol/kg [2, 8]: 0%
C[S@+]([O-])[C@H]1CO[C@H]2[C@@H]1OC[C@H]2O[N+](=O)[O-] [Comp 7, (3R,3aS,6S,6aS)-6-((S)-methylsulfinyl)hexahydrofuro[3,2-b]furan-3-yl nitrate, reference compound] | 0 | 0 | 0 | responders at 90 µmol/kg [1, 7]: 0%; inhibition in vivo at 450 µmol/kg ([2]; 1 h, rat, 450 μmol/kg p.o., 1 h, vs untreated control): 73%
O=[N+]([O-])O[C@@H]1CO[C@H]2[C@@H]1OC[C@@H]2S(=O)(=O)Cc1ccccc1 [Comp 8, (3R,3aS,6S,6aS)-6-(benzylsulfonyl)hexahydrofuro[3,2-b]furan-3-yl nitrate, reference compound] |  |  | 33 | 
CCCCS[C@H]1CO[C@H]2[C@@H]1OC[C@H]2O[N+](=O)[O-] [Comp 10, (3R,3aS,6S,6aS)-6-(butylthio)hexahydrofuro[3,2-b]furan-3-yl nitrate, reference compound] |  |  | 40 | 
CCCC[S+]([O-])[C@H]1CO[C@H]2[C@@H]1OC[C@H]2O[N+](=O)[O-] (stereo partly drawn) [Comp 11, (3R,3aS,6S,6aS)-6-((R,S)-butylsulfinyl)hexahydrofuro[3,2-b]furan-3-yl nitrate, reference compound] |  |  | 32 | 
CCCCS(=O)(=O)[C@H]1CO[C@H]2[C@@H]1OC[C@H]2O[N+](=O)[O-] [Comp 12, (3R,3aS,6S,6aS)-6-(butylsulfonyl)hexahydrofuro[3,2-b]furan-3-yl nitrate, reference compound] |  |  | 40 | 
CCS[C@H]1CO[C@H]2[C@@H]1OC[C@H]2O[N+](=O)[O-] [Ej. 1, (3R,3aS,6S,6aS)-6-(ethylthio)hexahydrofuro[3,2-b]furan-3-yl nitrate] |  |  |  | responders at 90 µmol/kg ([1]; po, rat, 1 h after dosage, read-out: Antithrombotic activity (% protection)): 32%; inhibition in vivo at 90 µmol/kg ([2]; 1 h): 29%; inhibition in vivo at 90 µmol/kg ([2]; 4 h): 0%
CCCS[C@H]1CO[C@H]2[C@@H]1OC[C@H]2O[N+](=O)[O-] [Ej. 2, (3R,3aS,6S,6aS)-6-(propylthio)hexahydrofuro[3,2-b]furan-3-yl nitrate] |  |  | 67 | inhibition in vivo at 90 µmol/kg [2, 5]: 69%; inhibition in vivo at 90 µmol/kg [2, 8]: 8%
C=CCS[C@H]1CO[C@H]2[C@@H]1OC[C@H]2O[N+](=O)[O-] [Ej. 3, (3R,3aS,6S,6aS)-6-(allylthio)hexahydrofuro[3,2-b]furan-3-yl nitrate] |  |  | 67 | 
CC[S+]([O-])[C@H]1CO[C@H]2[C@@H]1OC[C@H]2O[N+](=O)[O-] (stereo partly drawn) [Ej. 4, (3R,3aS,6S,6aS)-6-((R,S)-ethylsulfinyl)hexahydrofuro[3,2-b]-furan-3-yl nitrate] | 50 | 83 | 67 | responders at 90 µmol/kg [1, 7]: 32%; inhibition in vivo at 90 µmol/kg [2, 5]: 84%; inhibition in vivo at 90 µmol/kg [2, 8]: 43%
CCC[S+]([O-])[C@H]1CO[C@H]2[C@@H]1OC[C@H]2O[N+](=O)[O-] (stereo partly drawn) [Ej. 5, (3R,3aS,6S,6aS)-6-((R,S)-propylsulfinyl)hexahydrofuro[3,2-b]furan-3-yl nitrate] | 50 | 67 | 76 | responders at 90 µmol/kg [1, 7]: 40%; inhibition in vivo at 90 µmol/kg [2, 5]: 87%; inhibition in vivo at 90 µmol/kg [2, 8]: 58%
C=CC[S+]([O-])[C@H]1CO[C@H]2[C@@H]1OC[C@H]2O[N+](=O)[O-] (stereo partly drawn) [Ej. 6, (3R,3aS,6S,6aS)-6-((R,S)-allylsulfinyl)hexahydrofuro[3,2-b]furan-3-yl nitrate] | 17 | 34 | 67 | 
CCS(=O)(=O)[C@H]1CO[C@H]2[C@@H]1OC[C@H]2O[N+](=O)[O-] [Ej. 7, (3R,3aS,6S,6aS)-6-(ethylsulfonyl)hexahydrofuro[3,2-b]furan-3-yl nitrate] | 0 | 32 | 84 | responders at 90 µmol/kg [1, 7]: 50%; inhibition in vivo at 90 µmol/kg [2, 5]: 81%; inhibition in vivo at 90 µmol/kg [2, 8]: 23%
C=CCS(=O)(=O)[C@H]1CO[C@H]2[C@@H]1OC[C@H]2O[N+](=O)[O-] [Ej. 9, (3R,3aS,6S,6aS)-6-(allylsulfonyl)hexahydrofuro[3,2-b]furan-3-yl nitrate] | 0 | 50 | 83 | 
